Measurements taken from US20260078130A1, “NAMPT MODULATORS, PREPARATIONS, AND USES THEREOF” (SIRONAX LTD., priority 2022, published 2026).
Where two headings read alike, the source gives them in different places.

Assays:
[1] = biological target: T1, human enzyme NAMPT (full length) (Homo sapiens, UniProt P43490); experiment: NMN fluorescence biochemical assay (stimulation of NMN synthesis by NAMPT); conditions: for EC50: concentration giving half-maximal activation, read-out: Enzymatic EC50; for Enzymatic Emax: fold change of maximal activation compared to DMSO
T1 construct: human enzyme NAMPT (full length)
How it was run: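 Full-length human NAMPT (100 nM) was preincubated 15 min at 37 °C with compound in 50 mM Tris-HCl pH 7.5, 10 mM MgCl2, 2 mM DTT, then reacted 1 h at 37 °C with 50 μM NAM, 100 μM PRPP, 4 mM ATP (stated solution concentrations). NMN was derivatised with acetophenone/KOH then formic acid and read at Ex/Em 382/445 nm; EC50 and Emax (fold over DMSO) reported.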

[2] = system: endogenous NAMPT in U2OS cells; experiment: Cellular NAD+ modulation assay (NAD/NADH-Glo, U2OS cells); assay type: cell-based; conditions: Homo sapiens, 24 hours incubation, cellular NAD+; for maximal fold induction: read-out: Cellular Emax
Procedure: Certain compounds described herein were also assayed for their ability to stimulate the endogenous NAMPT in a native cellular environment in a cellular NAD^+ modulation assay. U2OS cells were grown in McCoy's 5A medium with 10% fetal bovine serum, in a humidified incubator with an atmosphere of 95% air and 5% CO2 at 37° C. The assays were initiated by plating 30 μL of U2OS cells in a culture medium with 10% fetal bovine serum, at a density of 3000 cells per well in a Corning® 384-well White/Clear Bottom Polystyrene Microplate. The plates were incubated in 37T incubators for a period of 16 hours. Test compounds with a series of concentrations in DMSO were added to the plates in a volume of 150 nL using Echo Liquid handlers. The plates are then incubated for 24 hours. The medium was removed from the wells, then 10 μL PBS was added to each well. To each well of cells in 10 μL of PBS, 10 μL of base solution with 1% DTAB was added. The plate was briefly mixed on a plate shaker to ensure homogeneity and cell lysis (5 mins). 10p L of 0.4N HCl was added per well. The plate was coved, and all samples were incubated for 15 minutes at 60° C. Then the plate was equilibrated for 10 minutes at room temperature. 10 μL of 0.5M Trizma® base was added to each well of acid-treated cells to neutralize the acid. Finally, 30 μL of NAD/NADH-Glo™ Detection Reagent was added. The plate was gently shaken to mix the samples. The plate was incubated for 40 minutes at room temperature. Luminescence was recorded using a luminometer. The potency measurements for the test compounds were quantified and represented as EC50 (concentration of a compound that gives half-maximal activation) and Emax (fold change of a compound's maximal activation compared to DMSO).

[3] = NMN fluorescence assay, purified human NAMPT 100 nM
[4] = NMN synthesis by purified human NAMPT (100 nM)

T1 sequence (P43490 whole entry): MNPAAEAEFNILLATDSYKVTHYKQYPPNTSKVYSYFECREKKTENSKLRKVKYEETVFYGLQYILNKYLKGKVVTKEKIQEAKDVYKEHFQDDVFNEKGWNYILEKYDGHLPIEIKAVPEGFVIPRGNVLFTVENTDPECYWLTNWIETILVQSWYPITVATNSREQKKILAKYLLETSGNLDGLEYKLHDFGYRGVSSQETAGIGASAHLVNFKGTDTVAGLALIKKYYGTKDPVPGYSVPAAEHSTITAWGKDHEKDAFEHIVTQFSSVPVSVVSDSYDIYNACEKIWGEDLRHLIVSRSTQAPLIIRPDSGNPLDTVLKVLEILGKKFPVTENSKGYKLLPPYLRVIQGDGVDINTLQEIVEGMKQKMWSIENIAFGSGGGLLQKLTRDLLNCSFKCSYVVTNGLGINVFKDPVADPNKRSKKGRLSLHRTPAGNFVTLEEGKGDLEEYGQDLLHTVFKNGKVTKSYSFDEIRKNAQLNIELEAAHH

Row | Structure (SMILES) | EC50 [1, 3] [µM] | Enzymatic Emax [1] | EC50 [2] [µM] | maximal fold induction [2] | EC50 [1, 4] [µM]
1 | Cn1ncc(Cl)c1CC1c2ccccc2C(=O)N1C[C@H]1C[C@@]2(CNC(=O)O2)C1 (some centres unmarked) [Compound 483, (2r,4r)-2-((1-((4-chloro-1-methyl-1H-pyrazol-5-yl)methyl)-3-oxoisoindolin-2-yl)methyl)-5-oxa-7-azaspiro[3.4]octan-6-one] | 0.5 to 5 | B (3≥B>2) | < 0.5 | 1.2 to 1.5 | 
2 | Cn1ncc(Cl)c1CC1c2cc(C#N)ccc2C(=O)N1Cc1ccc2[nH]nnc2c1 (centres unmarked) [Compound 327, 2-((1H-benzo[d][1,2,3]triazol-5-yl)methyl)-3-((4-chloro-1-methyl-1H-pyrazol-5-yl)methyl)-1-oxoisoindoline-5-carbonitrile] | 0.5 to 5 | A (A>3) | < 0.5 | 1.2 to 1.5 | 
3 | Cn1ncc(Cl)c1CC1c2ccccc2C(=O)N1C[C@]1(F)C[C@]2(CNC(=O)O2)C1 (some centres unmarked) [Compound 507, (2s,4s)-2-((1-((4-chloro-1-methyl-1H-pyrazol-5-yl)methyl)-3-oxoisoindolin-2-yl)methyl)-2-fluoro-5-oxa-7-azaspiro[3.4]octan-6-one] | ≥ 5 | B (3≥B>2) |  |  | 
4 | O=C1c2ccccc2C(Cc2ncccc2Br)N1CC1CC2(CC(O)C2)C1 (centres unmarked) [Compound 321, 3-((3-bromopyridin-2-yl)methyl)-2-((6-hydroxyspiro[3.3]heptan-2-yl)methyl) isoindolin-1-one] | 0.5 to 5 | B (3≥B>2) |  |  | 
5 | Cn1cnc(CC2c3ccccc3C(=O)N2Cc2ccc3[nH]c(=O)oc3c2)c1Cl (centres unmarked) [Compound 249, 6-((1-((5-chloro-1-methyl-1H-imidazol-4-yl)methyl)-3-oxoisoindolin-2-yl)methyl)benzo[d]oxazol-2(3H)-one] |  | A (A>3) |  |  | < 0.5
6 | O=C1c2ccccc2C(Cc2cccnc2F)N1Cc1ccc2[nH]c(=O)oc2c1 (centres unmarked) [Compound 183, 6-((1-((2-fluoropyridin-3-yl)methyl)-3-oxoisoindolin-2-yl)methyl)benzo[d]oxazol-2(3H)-one] |  | B (3≥B>2) |  |  | 0.5 to 5
7 | O=C1c2sc(Br)nc2CN1Cc1ccc(O)cc1 [Compound 447, 2-bromo-5-(4-hydroxybenzyl)-4,5-dihydro-6H-pyrrolo[3,4-d]thiazol-6-one] | ≥ 5 | B (3≥B>2) |  |  | 
8 | Cn1ncc(Cl)c1CC1c2ccccc2C(=O)N1Cc1ccc2[nH]c(=O)oc2c1 (centres unmarked) [Compound 251, 6-((1-((4-chloro-1-methyl-1H-pyrazol-5-yl)methyl)-3-oxoisoindolin-2-yl)methyl)benzo[d]oxazol-2(3H)-one] |  | A (A>3) |  |  | < 0.5
9 | COc1cccc(CC2c3ccccc3C(=O)N2Cc2ccc3[nH]c(=O)oc3c2)c1 (centres unmarked) [Compound 180, 6-((1-(3-methoxybenzyl)-3-oxoisoindolin-2-yl)methyl)benzo[d]oxazol-2(3H)-one] |  | B (3≥B>2) |  |  | 0.5 to 5
10 | COc1c(F)cc(CN2C(=O)c3ccccc3C2Cc2c(Cl)cnn2C)cc1F (centres unmarked) [Compound 560, 3-((4-chloro-1-methyl-1H-pyrazol-5-yl)methyl)-2-(3,5-difluoro-4-methoxybenzyl)isoindolin-1-one] | ≥ 5 | B (3≥B>2) |  |  | 
11 | Cn1cc(Cl)c(CC2c3ccccc3C(=O)N2Cc2ccc3[nH]nnc3c2)n1 (centres unmarked) [Compound 250, 2-((1H-benzo[d][1,2,3]triazol-5-yl)methyl)-3-((4-chloro-1-methyl-1H-pyrazol-3-yl)methyl) isoindolin-1-one] |  | B (3≥B>2) |  |  | < 0.5
12 | CNC(=O)c1ccc2c(c1)C(C)N(Cc1ccc3[nH]c(=O)oc3c1)C2=O (centres unmarked) [Compound 92, N,3-dimethyl-1-oxo-2-((2-oxo-2,3-dihydrobenzo[d]oxazol-6-yl)methyl)isoindoline-5-carboxamide] |  | B (3≥B>2) |  |  | ≥ 5
13 | O=C1c2ccccc2C(Cc2ncccc2Br)N1Cc1ccc(O)cn1 (centres unmarked) [Compound 267, 3-((3-bromopyridin-2-yl)methyl)-2-((5-hydroxypyridin-2-yl)methyl)isoindolin-1-one] |  | A (A>3) |  |  | 0.5 to 5
14 | Cc1[nH]nnc1/C=C/CN1C(=O)c2ccccc2C1Cc1ncccc1Br (centres unmarked) [Compound 386, (E)-3-((3-bromopyridin-2-yl)methyl)-2-(3-(5-methyl-1H-1,2,3-triazol-4-yl)allyl)isoindolin-1-one] | 0.5 to 5 | B (3≥B>2) |  |  | 
15 | CC1c2c(Br)cccc2C(=O)N1Cc1ccc2[nH]c(=O)oc2c1 (centres unmarked) [Compound 247, 6-((4-bromo-3-methyl-1-oxoisoindolin-2-yl)methyl)benzo[d]oxazol-2(3H)-one] |  | B (3≥B>2) |  |  | ≥ 5
16 | Cn1ncc(Cl)c1CC1c2ccccc2C(=O)N1C/C=C/c1nn[nH]c1Cl (centres unmarked) [Compound 525, (E)-3-((4-chloro-1-methyl-1H-pyrazol-5-yl)methyl)-2-(3-(5-chloro-1H-1,2,3-triazol-4-yl)allyl)isoindolin-1-one] | ≥ 5 | C (2≥C) |  |  | 
17 | Cn1ncc(Cl)c1CC1c2ccccc2C(=O)N1CCc1ccc(=O)[nH]c1 (centres unmarked) [Compound 636, 3-((4-chloro-1-methyl-1H-pyrazol-5-yl)methyl)-2-(2-(6-oxo-1,6-dihydropyridin-3-yl)ethyl)isoindolin-1-one] | ≥ 5 | C (2≥C) |  |  | 
18 | O=C1c2ccccc2C(Cc2ncccc2Br)N1Cc1ccn2cnnc2c1 (centres unmarked) [Compound 239, 2-([1,2,4]triazolo[4,3-a]pyridin-7-ylmethyl)-3-((3-bromopyridin-2-yl)methyl)isoindolin-1-one] |  | B (3≥B>2) |  |  | ≥ 5
19 | CC1c2ccccc2C(=O)N1Cc1cc(F)c2[nH]nnc2c1 (centres unmarked) [Compound 290, 2-((7-fluoro-1H-benzo[d][1,2,3]triazol-5-yl)methyl)-3-methylisoindolin-1-one] |  | C (2≥C) |  |  | ≥ 5
20 | Cc1onc(C#N)c1C(O)C1c2ccccc2C(=O)N1Cc1ccc2[nH]nnc2c1 (centres unmarked) [Compound 374, 4-((2-((1H-benzo[d][1,2,3]triazol-5-yl)methyl)-3-oxoisoindolin-1-yl)(hydroxy)methyl)-5-methylisoxazole-3-carbonitrile] | 0.5 to 5 | B (3≥B>2) |  |  | 
21 | Cn1c(CC2c3ccccc3C(=O)N2CC2CC3(CNC(=O)O3)C2)cccc1=O (centres unmarked) [Compound 494, 2-((1-((1-methyl-6-oxo-1,6-dihydropyridin-2-yl)methyl)-3-oxoisoindolin-2-yl)methyl)-5-oxa-7-azaspiro[3.4]octan-6-one] | ≥ 5 | C (2≥C) |  |  | 
22 | Cc1ccnnc1CC1c2ccccc2C(=O)N1Cc1ccc2[nH]c(=O)oc2c1 (centres unmarked) [Compound 261, 6-((1-((4-methylpyridazin-3-yl)methyl)-3-oxoisoindolin-2-yl)methyl)benzo[d]oxazol-2(3H)-one] |  | A (A>3) |  |  | 0.5 to 5
23 | O=C1c2ccccc2C(Cc2ncccc2Br)N1[C@H]1C[C@H](c2c[nH]nn2)C1 (some centres unmarked) [Compound 403, 2-((1r,3r)-3-(1H-1,2,3-triazol-4-yl)cyclobutyl)-3-((3-bromopyridin-2-yl)methyl)isoindolin-1-one] | ≥ 5 | C (2≥C) |  |  | 
24 | Cn1ncc(Cl)c1CC1c2cc(C3CNC3)ccc2C(=O)N1Cc1ccc2[nH]nnc2c1 (centres unmarked) [Compound 383, 2-((1H-benzo[d][1,2,3]triazol-5-yl)methyl)-5-(azetidin-3-yl)-3-((4-chloro-1-methyl-1H-pyrazol-5-yl)methyl)isoindolin-1-one] | < 0.5 | B (3≥B>2) |  |  | 
25 | O=C1c2ccccc2C(Cc2ncccc2Br)N1Cc1ccc2[nH]c(O)nc2c1 (centres unmarked) [Compound 367, 3-((3-bromopyridin-2-yl)methyl)-2-((2-hydroxy-1H-benzo[d]imidazol-5-yl)methyl)isoindolin-1-one] | ≥ 5 | C (2≥C) |  |  | 
26 | COC(C)(C)c1ccc2c(c1)C(Cc1c(Cl)cnn1C)N(Cc1ccc3[nH]nnc3c1)C2=O (centres unmarked) [Compound 396, 2-((1H-benzo[d][1,2,3]triazol-5-yl)methyl)-3-((4-chloro-1-methyl-1H-pyrazol-5-yl)methyl)-5-(2-methoxypropan-2-yl)isoindolin-1-one] | 0.5 to 5 | B (3≥B>2) |  |  | 
